# Source: patent US20100166806A1, “Combination therapy comprising the use of protein kinase C modulators and Histone Deacetylase inhibitors for treating HIV-1 latency” (Aphios Corporation, priority 2008, published 2010)
# Entries after “also recorded” stand apart in the source; their conditions may differ.
# What was measured:
# [1] = test system: bryostatin-1-induced HIV-1 reactivation in Jurkat-LAT-GFP cells; assay: Effect of PKC/MEK inhibitors on bryostatin-1-induced GFP expression in Jurkat-LAT-GFP cells; format: cell-based; conditions: Jurkat-LAT-GFP cells preincubated with inhibitor, then bryostatin-1 (10 nM) 6 h
# Procedure: The primary interest in Bryostatins has been initiated by recognition of the potent antiproliferative effects against various tumour cells. Such effects have been related to the ability of Bryo-1 to modulate protein kinase C (PKC) activity by activating or degrading certain isoforms of PKC. Since PKC activation mediates different signal pathways that in turn activate the transcription of latent HIV-1, we preincubated Jurkat-LAT-GFP cells with medium or the chemical inhibitors Gö6976 (classical PKCs inhibitor), Gö66850 (classical and novel PKCs inhibitor), Gö6983 (pan-PKC inhibitor), rottlerin (PKCδ inhibitor) and PD98059 (MEK inhibitor) at effective concentrations.
# Jurkat LAT-GFP cells were pretreated with the indicated inhibitors for 30 min at the indicated dose, and then stimulated with bryostatin-1 (10 nM) for 6 h. The percentage of GFP+ cells was measured by flow cytometry. Results, shown in FIG. 9, are represented as percentage of activation compared to cells treated with agonists in the absence of the chemical inhibitors (100% activation). The chemical inhibitors Gö6976 (classical PKCs inhibitor), Gö6850 (classical and novel PKCs inhibitor), Gö6983 (pan-PKC inhibitor), rottlerin (PKCδ inhibitor) and PD98059 (MEK inhibitor) were used at the indicated concentrations.
# [2] = test system: HIV-1 latency in Jurkat-LAT-GFP cells; assay: HIV-1 reactivation in Jurkat-LAT-GFP cells (percentage of GFP+ cells by flow cytometry); format: cell-based; conditions: for HIV-1 reactivation: 10 nM
# [3] = cited from earlier work
# [4] = test system: CD4; assay: Cell surface expression of CD4 on MT-2 cells by flow cytometry; format: cell-based, human
# Procedure: (§1) This effect, shown in FIG. 12, is mediated though a PKC-dependent pathway and is not affected by the presence of VPA. MT-2 cells were treated with 10 nM of bryostatin in the presence or absence of either the PKC inhibitor Gö6850 or the HDAC inhibitor VPA for 24 h and the expression of CD4 and CXCR4 analysed. Cell surface expression of CD4 and CXCR4 antigens were measured by direct fluorescence using specific mAbs and analyzed by flow cytometry in an EPIC XL flow cytometer (Beckman-Coulter Inc. CA, USA). The anti-CXCR4 (clone 12G5, PE-labeled) was from BD Biosciences Pharmigen (San Diego, Calif., USA). The mAb anti-CD4 (clone 6D10, FITC-labelled) was from ImmunoTools (Friesoythe, Del.). Dual-Color Reagent Mouse IgG1/FITC+ Mouse IgG1/PE from DAKO (clone DAK-GO1 directed towards Aspergillus niger glucose oxidase) was used as negative control.
# [5] = test system: MAPKs ERK1+2 and JNK1+2; assay: Western blot of phosphorylation (activation) of MAPKs ERK and JNK in Jurkat-LAT-GFP cells; format: cell-based
# Procedure: (§2) Jurkat-LAT-GFP cells were stimulated with increasing concentrations of bryostatin-1 and the phosphorylation and degradation of the NF-κB inhibitor Iκbα, and the phosphorylation (activation) of the MAPKs, ERK and JNK, were investigated by western blots using specific mAbs.
# (§3) Jurkat LAT-GFP cells were incubated with either bryostatin-1 (1, 10, 25, 50 and 100 nM) or with prostratin (0.01, 0.05, 0.1, 0.5, 1 and 10 μM) for 10 min. IκBα phosphorylation and degradation, the phosphorylation status of MAPKs ERK 1+2 and JNK 1+2, and the steady state levels of total ERK 1+2 were analyzed using specific antibodies by western blots. Control and treated cells were washed with PBS and proteins extracted in 50 μl of lysis buffer (20 mM Hepes pH 8.0, 10 mM KCl, 0.15 mM EGTA, 0.15 mM EDTA, 0.5 mM Na3VO4, 5 mM NaFl, 1 mM DTT, leupeptin 1 μg/ml, pepstatin 0.5 μg/ml, aprotinin 0.5 μg/ml, and 1 mM PMSF) containing 0.5% NP-40. Protein concentration was determined by the Bradford assay (Bio-Rad, Richmond, Calif., USA) and thirty μg of proteins were boiled in Laemmli buffer and electrophoresed in 10% SDS/polyacrylamide gels. Separated proteins were transferred to nitrocellulose membranes (0.5 A at 100 V; 4° C.) for 1 h. […]
# [6] = test system: IκBα; assay: Western blot of IκBα phosphorylation and degradation (NF-κB pathway) in Jurkat-LAT-GFP cells; format: cell-based
# Procedure: as §2, §3
# [7] = test system: HIVIIIB variant of HIV-1; assay: Virus-induced cytotoxicity assay (HIV-1-induced cell death in CEM-SS cells, XTT); format: cell-based
# Procedure: The human T-lymphoblastic cell line CEM-SS was used as the target cell line and virus infections were performed using the HIVIIIB variant of HIV-1 (FIG. 13). Briefly, increasing concentrations of bryostatins (1, 2, 3 and AB) or 3TC (a known inhibitor of HIV RT) were incubated with 5,000 CEM-SS cells and HIVIIIB in a final volume of 200 μl/well at 37° C. for 6 days. After 6 days, 50 μl/well of XTT dye was added and the plate incubated for 4 hours at 37° C. The plate was then read at 450 nm with a reference at 630 nm and the percent CPE, percent inhibition, percent toxicity, effective concentration 50 (EC50), cytotoxic concentration (CC50) and the selective index (CC50/EC50) were calculated. Plates contained the following controls: media, cellular and viral.
# [8] = test system: CXCR4; assay: Cell surface expression of CXCR4 on MT-2 cells by flow cytometry; format: cell-based, human
# Procedure: as §1
# [9] = test system: HIV-1 latent infected cells; conditions: three of four patients; VPA 500-750 mg twice a day; cited from earlier work
# [10] = increasing concentrations of bryostatin-1
# [11] = MT-2 cells, 10 nM bryostatin, 24 h
compound,measurement,setting,value
CC(=O)c1c(O)c(C)c(O)c(Cc2c(O)c3c(c(C(=O)/C=C/c4ccccc4)c2O)OC(C)(C)C=C3)c1O [rottlerin],Inhibition of GFP expression induced by Bryostatin-1,[1],did not affect
"CC(/C=C/C(=O)NO)=C\[C@@H](C)C(=O)c1ccc(N(C)C)cc1 [TSA, trichostatin A, reference compound]",Synergy with bryostatin-1 to antagonise HIV-1 latency,[2],synergises
Cn1c2ccccc2c2c3c(c4c5ccccc5n(CCC#N)c4c21)CNC3=O [Gö6976],Inhibition of GFP expression induced by Bryostatin-1,[1],strongly inhibited
bryostatin-2,HIV-1 reactivation,[2]; Jurkat-LAT-GFP cells,strongly induce HIV-1 reactivation
COc1ccc2c(c1)c(C1=C(c3c[nH]c4ccccc34)C(=O)NC1=O)cn2CCCN(C)C [Gö6983],Inhibition of GFP expression induced by Bryostatin-1,[1],strongly inhibited
CCC/C=C/C=C/C(=O)O[C@H]1/C(=C/C(=O)OC)C[C@H]2C[C@H]([C@@H](C)O)OC(=O)C[C@H](O)C[C@@H]3C[C@H](OC(C)=O)C(C)(C)[C@](O)(C[C@@H]4C/C(=C/C(=O)OC)C[C@H](/C=C/C(C)(C)[C@]1(O)O2)O4)O3 [bryostatin-1],Tissue accumulation after i.v. injection,[3],accumulated in several tissues including lymph nodes and the gastrointestinal tract
same,Expression of HIV-1 receptor CD4,[4]; 10 nM,downregulates
same,JNK activation,[5]; 10 nM,does not induce
same,Activation of the MAPKs ERK1+2 and JNK1+2,[5]; [10],in a concentration dependent manner
same,IκBα phosphorylation and degradation,[6]; 10 nM,does not induce
same,Phosphorylation and degradation of IκBα,[6]; [10],induced phosphorylation and degradation
same,HIV-1 reactivation in the presence of valproic acid,[2],can induce HIV-1 reactivation
same,HIV-1 reactivation,[2]; Jurkat-LAT-GFP cells,strongly induce HIV-1 reactivation; also recorded: fully reactivates HIV-1 latency
same,Potency to antagonize HIV-1 latency relative to prostratin,"[2]; Jurkat-LAT-GFP cells, 6 h, versus prostratin",100 Fold
same,HIV-1 reactivation (GFP+ cells),"[2]; bryostatin-1 100 nM, Jurkat-LAT-GFP cells",87 % of GFP+ cells
same,Reduction of the bryostatin-1 concentration allowed by HDACs inhibitors,[2]; in combination with HDACs inhibitors,at least one order of magnitude
same,EC50,[7],26 nM
same,Expression of HIV-1 receptor CXCR4,[8]; 10 nM,downregulates
CN(C)CCCn1cc(C2=C(c3c[nH]c4ccccc34)C(=O)NC2=O)c2ccccc21 [Gö6850],Inhibition of GFP expression induced by Bryostatin-1,[1],strongly inhibited
COc1cccc(-c2cc(=O)c3ccccc3o2)c1N [PD98059],Inhibition of GFP expression induced by Bryostatin-1,[1],partially inhibited
CCC/C=C/C=C/C(=O)O[C@H]1[C@H]2C=C3C[C@H]([C@@H](C)O)OC(=O)C[C@H](O)C[C@@H]4C[C@H](OC(C)=O)C(C)(C)[C@](O)(C[C@@H]5C/C(=C\C(=O)OC)C[C@H](/C=C/C(C)(C)[C@]1(OC(=O)C2)O3)O5)O4 [bryostatin-3],HIV-1 reactivation,[2]; Jurkat-LAT-GFP cells,strongly induce HIV-1 reactivation
"CCCC(CCC)C(=O)O [Valproic acid, valproic acid, reference compound]",Effect of VPA on bryostatin-induced CD4 downregulation,[4]; [11],not affected
same,Depletion of HIV-1 latent infected cells in patients,[9],significant depletion
same,Synergy with bryostatin-1 to antagonise HIV-1 latency,[2],synergises
same,Effect of VPA on bryostatin-induced CXCR4 downregulation,[8]; [11],not affected
